Laboratory results: US20120108501A1, “Protease Inhibitors” (priority 2009, published 2012)

Test: Pharmacokinetics of released PEGylated protease inhibitor following P.O. administration of prodrugs in rats
Type: in vivo, male Sprague-Dawley rats
Set-up: AUCall Mean: concentration or dose not given beside the values; C24 Mean: unit not given here
Settings: concentration at 24 hours; mPEG5-atazanavir in plasma after PO administration of mPEG5-ATV or of the listed prodrug, rats (n = 4-5)
Method: Pharmacokinetic analysis of protease inhibitors described herein was conducted. To evaluate the pharmacokinetics of PEGylated protease inhibitor conjugates with releasable lipophilic attachments, test compounds were administered to male Sprague-Dawley rats.
At various times following test article administration, serial blood samples were collected from indwelling jugular vein catheters and transferred to micro-tubes containing 7.5 μL of 20% w/v K2EDTA as an anticoagulant. Following processing of the blood samples to plasma (10 minutes at 10000 rpm, Centrifuge Model: Kubota 3500), plasma concentrations of the test article or corresponding PEGylated molecule released from the test article was measured using LC-MS/MS methods. Pharmacokinetic parameters were estimated using noncompartmental methods.

| Molecule | C24 Mean |
| --- | --- |
| COCCOCCOCCOCCOCCOC(=O)NC(C(=O)NC(Cc1ccccc1)C(CN(Cc1ccc(-c2ccccn2)cc1)NC(=O)C(NC(=O)OC)C(C)(C)C)OC(=O)CNC(=O)C(N)CC(C)C)C(C)(C)C.Cl (stereo not drawn) [Leu-Gly-mPEG5-Atazanavir HCl, Leu-Gly-mPEG5-Atazanavir Hydrochloride] | 18.1 |

Same assay, conditions: concentration at 24 hours; mPEG6-atazanavir in plasma after PO administration of mPEG6-ATV or of the listed prodrug, rats (n = 4-5)

| Molecule | C24 Mean |
| --- | --- |
| CCCC(=O)OC(CN(Cc1ccc(-c2ccccn2)cc1)NC(=O)C(NC(=O)OC)C(C)(C)C)C(Cc1ccccc1)NC(=O)C(NC(=O)OCCOCCOCCOCCOCCOCCOC)C(C)(C)C (centres unmarked) [C3H7CO-mPEG6-ATV, mPEG6-Atazanavir Butyrate] | 0.00 |
| CCOC(=O)OC(CN(Cc1ccc(-c2ccccn2)cc1)NC(=O)C(NC(=O)OC)C(C)(C)C)C(Cc1ccccc1)NC(=O)C(NC(=O)OCCOCCOCCOCCOCCOCCOC)C(C)(C)C (centres unmarked) [mPEG6-ATV-Ethyl Carbonate, mPEG6-Atazanavir Ethyl Carbonate] | 4.39 |

Same assay, conditions: mPEG3-atazanavir in plasma after PO administration of mPEG3-ATV or of the listed prodrug, rats (n = 4-5)

| AUCall Mean [ng·h/mL] | Cmax Mean [ng/mL] | MRT last Mean [h] | Tmax* Median [h] | Molecule |
| --- | --- | --- | --- | --- |
| 59.6 | 17.8 | 2.44 | 0.500 | CCC(=O)OC(CN(Cc1ccc(-c2ccccn2)cc1)NC(=O)C(NC(=O)OC)C(C)(C)C)C(Cc1ccccc1)NC(=O)C(NC(=O)OCCOCCOCCOC)C(C)(C)C (centres unmarked) [C2H5CO-mPEG3-ATV, mPEG3-Atazanavir Propionate] |
| 33.9 | 7.51 | 2.78 | 2.00 | CCCCCC(=O)O[C@@H](CN(Cc1ccc(-c2ccccn2)cc1)NC(=O)[C@@H](NC(=O)OC)C(C)(C)C)[C@H](Cc1ccccc1)NC(=O)[C@@H](NC(=O)OCCOCCOCCOC)C(C)(C)C [C5H11CO-mPEG3-ATV, C5H11CO-mPEG3-atazanavir] |

Same assay, conditions: mPEG5-atazanavir in plasma after PO administration of mPEG5-ATV or of the listed prodrug, rats (n = 4-5)

| Molecule | AUCall Mean [ng·h/mL] | Cmax Mean [ng/mL] | MRT last Mean [h] | Tmax Median [h] |
| --- | --- | --- | --- | --- |
| CCOC(CC)OC(CN(Cc1ccc(-c2ccccn2)cc1)NC(=O)C(NC(=O)OC)C(C)(C)C)C(Cc1ccccc1)NC(=O)C(NC(=O)OCCOCCOCCOCCOCCOC)C(C)(C)C (mixture of isomers) [ATV-1-Ethoxy propoxy-mPEG5, atazanavir-1-ethoxypropoxy-mPEG5] | 235 | 55.3 | 3.53 | 1.00 |
| COCCOCCOCCOCCOCCOC(=O)NC(C(=O)NC(Cc1ccccc1)C(CN(Cc1ccc(-c2ccccn2)cc1)NC(=O)C(NC(=O)OC)C(C)(C)C)OC(=O)CNC(=O)C(N)CC(C)C)C(C)(C)C.Cl (stereo not drawn) [Leu-Gly-mPEG5-Atazanavir HCl, Leu-Gly-mPEG5-Atazanavir Hydrochloride] | 344 | 19.5 | 11.3 | 12.0 |

Same assay, conditions: mPEG6-atazanavir in plasma after PO administration of mPEG6-ATV or of the listed prodrug, rats (n = 4-5)

| Molecule | AUCall Mean [ng·h/mL] | Cmax Mean [ng/mL] | MRT last Mean [h] | Tmax Median [h] |
| --- | --- | --- | --- | --- |
| CCCC(=O)OC(CN(Cc1ccc(-c2ccccn2)cc1)NC(=O)C(NC(=O)OC)C(C)(C)C)C(Cc1ccccc1)NC(=O)C(NC(=O)OCCOCCOCCOCCOCCOCCOC)C(C)(C)C (centres unmarked) [C3H7CO-mPEG6-ATV, mPEG6-Atazanavir Butyrate] | 6.16 | 2.22 | 1.36 | 2.00 |
| COCCOCCOCCOCCOCCOCCOC(=O)N[C@H](C(=O)N[C@@H](Cc1ccccc1)[C@H](CN(Cc1ccc(-c2ccccn2)cc1)NC(=O)[C@@H](NC(=O)OC)C(C)(C)C)OC(=O)CNC(=O)[C@@H](N)CC(C)C)C(C)(C)C.Cl [Leu-Gly-mPEG6-ATV, Leu-Gly-mPEG6-Atazanavir Hydrochloride] | 294 | 13.7 | 27.2 | 30.0 |
| CCOC(CC)OC(CN(Cc1ccc(-c2ccccn2)cc1)NC(=O)C(NC(=O)OC)C(C)(C)C)C(Cc1ccccc1)NC(=O)C(NC(=O)OCCOCCOCCOCCOCCOCCOC)C(C)(C)C (mixture of isomers) [ATV-1-Ethoxy propoxy-mPEG6, atazanavir-1-ethoxypropoxy-mPEG6] | 185 | 83.0 | 5.16 | 0.750 |
| COCCOCCOCCOCCOCCOCCOC(=O)NC(C(=O)NC(Cc1ccccc1)C(CN(Cc1ccc(-c2ccccn2)cc1)NC(=O)C(NC(=O)OC)C(C)(C)C)OC(=O)C(CC(C)C)NC(=O)C(N)CC(C)C)C(C)(C)C.Cl (stereo not drawn) [Leu-Leu-mPEG6-ATV, Leu-Leu-mPEG6-Atazanavir Hydrochloride] | 152 | 14.2 | 13.1 | 1.50 |
| COCCOCCOCCOCCOCCOCCOC(=O)NC(C(=O)NC(Cc1ccccc1)C(CN(Cc1ccc(-c2ccccn2)cc1)NC(=O)C(NC(=O)OC)C(C)(C)C)OC(C)=O)C(C)(C)C (centres unmarked) [Acetyl-mPEG6-Atazanavir, O-Acetyl-mPEG6-Atazanavir] | 150 | 10.3 | 13.8 | 6.00 |

Other lines, results leading:

| AUCall Mean [ng·h/mL] | Cmax Mean [ng/mL] | MRT last Mean [h] | Tmax Median [h] | Molecule |
| --- | --- | --- | --- | --- |
| 279 | 27.0 | 16.2 | 2.00 | COCCOCCOCCOCCOCCOCCOC(=O)N[C@H](C(=O)N[C@@H](Cc1ccccc1)[C@H](CN(Cc1ccc(-c2ccccn2)cc1)NC(=O)[C@@H](NC(=O)OC)C(C)(C)C)OC(=O)[C@H](Cc1ccccc1)NC(=O)[C@@H](N)Cc1ccccc1)C(C)(C)C.Cl [Phe-Phe-mPEG6-ATV, Phe-Phe-mPEG6-Atazanavir Hydrochloride] |
| 102 | 7.06 | 21.4 | 3.25 | COCCOCCOCCOCCOCCOCCOC(=O)NC(C(=O)NC(Cc1ccccc1)C(CN(Cc1ccc(-c2ccccn2)cc1)NC(=O)C(NC(=O)OC)C(C)(C)C)OC(=O)COCCOC(=O)C(Cc1ccccc1)NC(=O)C(N)Cc1ccccc1)C(C)(C)C (centres unmarked) [mPEG6-ATV-CME-Phe-Phe, mPEG6-atazanavir-ethoxy-CME-Phe-Phe] |
| 194 | 5.11 | 24.3 | 7.00 | COCCOCCOCCOCCOCCOCCOC(=O)NC(C(=O)NC(Cc1ccccc1)C(CN(Cc1ccc(-c2ccccn2)cc1)NC(=O)C(NC(=O)OC)C(C)(C)C)OC(=O)CNC(=O)C(N)C(C)C)C(C)(C)C.Cl (stereo not drawn) [Val-Gly-mPEG6-ATV, Val-GIy-mPEG6-Atazanavir Hydrochloride] |
| 97.6 | 26.8 | 4.93 | 0.250 | COCCOCCOCCOCCOCCOCCOC(=O)N[C@H](C(=O)N[C@@H](Cc1ccccc1)[C@@H](O)CN(Cc1ccc(-c2ccccn2)cc1)NC(=O)[C@@H](NC(=O)OC)C(C)(C)C)C(C)(C)C [PEG6-ATV, mPEG6-atazanavir] |
| 73.1 | 4.05 | 18.9 | 12.0 | COCCOCCOCCOCCOCCOCCOC(=O)NC(C(=O)NC(Cc1ccccc1)C(CN(Cc1ccc(-c2ccccn2)cc1)NC(=O)C(NC(=O)OC)C(C)(C)C)OC(=O)C(N)C(C)C)C(C)(C)C.Cl [mPEG6-ATV-L-valine, mPEG6-Atazanavir-L-Valine HCl] |
| 207 | 19.9 | 10.3 | 1.50 | CCOC(=O)OC(CN(Cc1ccc(-c2ccccn2)cc1)NC(=O)C(NC(=O)OC)C(C)(C)C)C(Cc1ccccc1)NC(=O)C(NC(=O)OCCOCCOCCOCCOCCOCCOC)C(C)(C)C (centres unmarked) [mPEG6-ATV-Ethyl Carbonate, mPEG6-Atazanavir Ethyl Carbonate] |
| 40.6 | 2.07 | 13.8 | 4.00 | mPEG6-atazanavir-ethoxy-CME-Leu-Leu [mPEG6-ATV-Ethoxy-CM-Leu-Leu] |
| 418 | 37.2 | 13.8 | 1.50 | COCCOCCOCCOCCOCCOCCOC(=O)N[C@H](C(=O)N[C@@H](Cc1ccccc1)[C@H](CN(Cc1ccc(-c2ccccn2)cc1)NC(=O)[C@@H](NC(=O)OC)C(C)(C)C)OC(=O)[C@H](Cc1ccccc1)NC(=O)[C@@H](N)CC(C)C)C(C)(C)C.Cl [Leu-Phe-mPEG6-ATV, Leu-Phe-mPEG6-Atazanavir Hydrochloride] |
